Measured values published in publication PMC2248166, “Quantitative peptide binding motifs for 19 human and mouse MHC class I molecules derived using positional scanning combinatorial peptide libraries” (Immunome Research, 2008).

How the values were obtained:
Format in all cases: binding
HLA A*3001 = HLA A*3001 (Homo sapiens, UniProt P04439, D140H/D185E/E176W/F33S/G80R/H175R/K168Q/R138E/R41S); assay: biochemical
HLA A*3201 = HLA A*3201 (Homo sapiens, UniProt P04439, A270S/D101S/D185E/E176V/E277Q/F133L/G103R/G107R/G231S/H175R/I121M/I218V/I322F/K168Q/L105A/L300P/L318F/M331R/P208A/P217A/Q94H/R106L/R138Q/S129P/T104I/T323A/T345S/V100E/V321M/V358M); assay: biochemical
HLA A*6802 = HLA A*6802 (Homo sapiens, UniProt P04439, A269V/D140Y/D185E/E176V/E277Q/E87N/F33Y/G231S/I121R/I166T/I218V/L180W/L300P/L318F/N151K/P208A/P217A/Q86R/R138H/R169H/S129P/T345S/V36M)
HLA B*0801 = HLA B*0801 (Homo sapiens, UniProt P01889, A93T/A95T/D138N/E176V/E187T/K202T/Q94N/R180D/S35A/V36M/Y33D/Y91F); assay: biochemical
HLA B*1501 = HLA B*1501 (Homo sapiens, UniProt P01889, A329T/A93T/A95T/C349S/D201E/D98Y/E187L/E204Q/E69M/E70A/K202T/N87E/Q94N/R155S/R180W/S121R/S35A/S48A/V306I/V36M/Y140S/Y91S); assay: biochemical
HLA B*1503 = HLA B*1503 (Homo sapiens, UniProt P01889, A329T/A93T/A95T/C349S/D201E/D98Y/E187L/E204Q/K202T/N87E/Q94N/R155S/R180L/S121R/S35A/V306I/V36M/Y140S/Y91S); assay: biochemical
HLA B*3501 = HLA B*3501 (Homo sapiens, UniProt P01889, A329T/A93T/A95T/C349S/D201E/D98Y/E176V/E187L/E204Q/E69T/I218V/K202T/L119I/Q94N/R155S/R180L/S121R/S35A/S48A/T118I/V127L/V306I/V36M/Y140S/Y91F)
HLA B*5101 = HLA B*5101 (Homo sapiens, UniProt P01889, A329T/A93T/A95T/C349S/D138N/D201E/D98Y/E187L/E204Q/E69T/G107R/I218V/K202T/L105A/L119W/N104I/Q94N/R106L/R155S/R180L/S101N/S121T/S35A/S48A/V306I/V36M/Y195H/Y91F)
HLA B*5301 = HLA B*5301 (Homo sapiens, UniProt P01889, A329T/A93T/A95T/C349S/D201E/D98Y/E176V/E187L/E204Q/E69T/G107R/I218V/K202T/L105A/L119I/N104I/Q94N/R106L/R155S/R180L/S101N/S121R/S35A/S48A/T118I/V127L/V306I/V36M/Y140S/Y91F)
HLA B*5401 = HLA B*5401 (Homo sapiens, UniProt P01889, A329T/C349S/D138N/D201E/E176V/E187T/E204Q/E69G/I76V/K202T/L119W/R155S/R180L/S121T/S35A/S48A/V127L/V306I/V36M/Y140L)
HLA B*5801 = HLA B*5801 (Homo sapiens, UniProt P01889, A329T/C349S/D201E/D98Y/E176V/E187L/E204Q/E69T/G107R/I218V/I90N/K202T/L105A/L119I/N104I/N87E/Q89R/Q94S/R106L/R155S/R180L/R86G/S101N/S121R/S35A/S48A/T118I/V127L/V306I/V36M/Y140S/Y91M)
HLA B*5802 = HLA B*5802 (Homo sapiens, UniProt P01889, A329T/C349S/D201E/D98Y/E176V/E187L/E204Q/E69T/G107R/I218V/I90N/K202T/L105A/N104I/N87E/Q89R/Q94S/R106L/R155S/R180L/R86G/S101N/S121W/S35A/S48A/V127L/V306I/V36M/Y140S/Y91M)
H-2 D^b = H-2 D^b (Mus musculus, UniProt P01899)
H-2 D^d = H-2 D^d (Mus musculus, UniProt P01900)
H-2 K^d = H-2 K^d (Mus musculus, UniProt P01902)
H-2 K^k = H-2 K^k (Mus musculus, UniProt P04223)
Sequence of H-2 K^k (P01887 21-119): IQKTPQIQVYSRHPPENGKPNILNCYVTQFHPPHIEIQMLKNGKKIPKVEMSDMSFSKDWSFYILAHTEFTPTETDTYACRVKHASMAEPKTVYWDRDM
Sequence of H-2 K^k (P04223 22-369): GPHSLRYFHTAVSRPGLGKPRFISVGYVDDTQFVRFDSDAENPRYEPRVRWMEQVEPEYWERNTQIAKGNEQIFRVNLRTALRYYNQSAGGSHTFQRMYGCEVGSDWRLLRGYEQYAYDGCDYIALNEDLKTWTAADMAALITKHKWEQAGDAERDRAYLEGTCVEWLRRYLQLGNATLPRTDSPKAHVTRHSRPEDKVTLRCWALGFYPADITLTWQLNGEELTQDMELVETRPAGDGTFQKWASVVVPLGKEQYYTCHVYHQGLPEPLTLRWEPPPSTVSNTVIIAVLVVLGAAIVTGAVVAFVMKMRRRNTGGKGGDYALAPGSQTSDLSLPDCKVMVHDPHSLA

Sequence of H-2 K^d (P01887 21-119): as the sequence (P01887 21-119) above
Sequence of H-2 K^d (P01902 22-368): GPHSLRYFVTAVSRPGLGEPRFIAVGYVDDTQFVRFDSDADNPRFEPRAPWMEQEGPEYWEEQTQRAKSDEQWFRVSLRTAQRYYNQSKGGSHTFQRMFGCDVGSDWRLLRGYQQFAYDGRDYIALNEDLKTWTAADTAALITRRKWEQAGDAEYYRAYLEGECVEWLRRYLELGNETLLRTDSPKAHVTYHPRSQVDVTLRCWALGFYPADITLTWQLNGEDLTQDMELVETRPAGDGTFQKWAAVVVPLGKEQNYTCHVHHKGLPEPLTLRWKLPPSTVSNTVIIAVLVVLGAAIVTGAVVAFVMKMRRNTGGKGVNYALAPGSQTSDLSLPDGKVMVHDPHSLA
Sequence of H-2 D^b (P01887 21-119): as the sequence (P01887 21-119) above
Sequence of H-2 D^b (P01899 25-362): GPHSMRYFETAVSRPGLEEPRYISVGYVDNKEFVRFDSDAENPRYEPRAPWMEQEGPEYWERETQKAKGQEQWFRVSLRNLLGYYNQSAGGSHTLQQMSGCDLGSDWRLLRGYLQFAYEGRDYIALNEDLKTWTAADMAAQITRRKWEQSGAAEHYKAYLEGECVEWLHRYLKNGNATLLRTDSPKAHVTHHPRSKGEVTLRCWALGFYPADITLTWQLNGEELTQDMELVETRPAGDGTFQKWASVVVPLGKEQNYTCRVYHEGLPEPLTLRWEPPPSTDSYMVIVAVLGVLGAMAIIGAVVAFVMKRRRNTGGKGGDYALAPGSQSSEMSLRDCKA
Sequence of H-2 D^d (P01900 whole entry, looked up): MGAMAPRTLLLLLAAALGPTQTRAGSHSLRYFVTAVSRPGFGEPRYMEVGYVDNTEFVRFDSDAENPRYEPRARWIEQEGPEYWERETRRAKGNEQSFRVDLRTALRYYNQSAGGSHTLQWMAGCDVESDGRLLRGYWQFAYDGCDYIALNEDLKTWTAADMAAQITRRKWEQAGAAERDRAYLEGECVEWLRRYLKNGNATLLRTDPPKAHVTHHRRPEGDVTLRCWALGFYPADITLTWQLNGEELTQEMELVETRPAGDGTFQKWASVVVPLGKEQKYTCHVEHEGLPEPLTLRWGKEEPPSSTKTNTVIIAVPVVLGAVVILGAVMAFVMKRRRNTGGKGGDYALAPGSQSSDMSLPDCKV

| Sequence | Normalized average relative binding affinity(ARB) (HLA A*3001) | Normalized average relative binding affinity(ARB) (HLA A*3201) | Normalized average relative binding affinity(ARB) (HLA A*6802) | Normalized average relative binding affinity(ARB) (HLA B*0801) | Normalized average relative binding affinity(ARB) (HLA B*1501) | Normalized average relative binding affinity(ARB) (HLA B*1503) | Normalized average relative binding affinity(ARB) (HLA B*3501) | Normalized average relative binding affinity(ARB) (HLA B*5101) | Normalized average relative binding affinity(ARB) (HLA B*5301) | Normalized average relative binding affinity(ARB) (HLA B*5401) | Normalized average relative binding affinity(ARB) (HLA B*5801) | Normalized average relative binding affinity(ARB) (HLA B*5802) | Normalized average relative binding affinity(ARB) (H-2 D^b) | Normalized average relative binding affinity(ARB) (H-2 D^d) | Normalized average relative binding affinity(ARB) (H-2 K^d) | Normalized average relative binding affinity(ARB) (H-2 K^k) |
| --- | --- | --- | --- | --- | --- | --- | --- | --- | --- | --- | --- | --- | --- | --- | --- | --- |
| XXXXXXXRX [3064.0155] | 0.35 | 0.26 | 0.13 | 0.30 | 0.15 | 0.11 | 0.072 | 0.36 | 0.46 | 0.059 | 0.13 | 0.37 | 0.068 | 0.46 | 0.49 | 0.10 |
| XXXXXXXSX [3064.0156] | 0.23 | 1.0 | 0.27 | 1.0 | 0.34 | 1.0 | 0.20 | 0.44 | 0.11 | 1.0 | 0.31 | 0.30 | 0.13 | 1.0 | 0.61 | 0.48 |
| XXXXXXXTX [3064.0157] | 0.31 | 0.86 | 0.37 | 0.24 | 0.40 | 0.23 | 0.26 | 0.57 | 0.22 | 0.20 | 0.29 | 0.66 | 0.24 | 0.58 | 0.52 | 0.28 |
| XXXXXXXVX [3064.0158] | 0.19 | 0.62 | 0.17 | 0.48 | 0.38 | 0.34 | 0.37 | 0.32 | 0.51 | 0.10 | 0.20 | 0.26 | 0.35 | 0.52 | 0.37 | 0.38 |
| XXXXXXXWX [3064.0159] | 0.16 | 0.089 | 0.16 | 0.11 | 0.035 | 0.13 | 0.047 | 0.20 | 0.099 | 0.051 | 0.84 | 0.16 | 0.13 | 0.27 | 0.26 | 0.18 |
